In patent US8623919B2, “Method of synthesizing S-allyl-cysteine analogues and their therapeutic application in treating myocardial infarction” (Fudan University, priority 2007, dated 2014):

Columns and labels:
[1] = system: rats following MI injury; experiment: SOD activity in plasma of rats (sham or MI); type: in vivo, SD rats; conditions: 50 mg/Kg/day intraperitoneal
Protocol: (§1) Animals were assigned and prepared the same as in Example 7, and dosages of SPRC and SAC were used the same in this example as in Example 7.
(§2) Serum CK levels were detected with diagnostic kit (NJBI, China) according to the instructions. LDH were determined calorimetrically with a spectrophotometer. Lipid peroxidation was measured in terms of MDA content using the thiobarbituric acid (TBA) assay. […] With regard to lipid peroxidation, the levels of MDA in MI groups increased at 48 h after myocardial infarction. […] (FIG. 14)

[2] = system: rats following MI injury; experiment: Serum CK in rats (sham or MI); type: in vivo, SD rats; conditions: Sham rats; 50 mg/Kg/day intraperitoneal
Protocol: as §1, §2

[3] = system: myocardial cells; experiment: Lipid peroxidation (MDA, TBA) in hypoxia/reoxygenation injured myocardial cells; type: cell-based, Sprague-Dawley (SD) rat; conditions: 10^−5 mol/L
Protocol: Myocardial cell samples were obtained from the same procedure of Example 1, the experiment groups were divided and hypoxia/reoxygenation experiments were performed on Control group, Vehicle group, SAC and analogue groups, same as the experiments in Example 1 with the same dosages and same conditions. Myocardial cells were obtained from each sample (10^6 myocardial cells/sample) from the Control group, Vehicle group, SAC and analogue groups. The cells were lysed under sterilized condition, and lipid peroxidation experiments on the samples were performed. Since oxygen free radical attacks poly unsaturated fatty acid in biomembrane, inducing lipid peroxidation and producing MDA (malondialdehyde). MDA can react with thiobarbituric acid (TBA), forms red product, which can be detected in spectrophotometer at 532 nm. […] The inhibition effect could be reversed by PAG.

[4] = system: rats following MI injury; experiment: Plasma H2S levels in rats (sham or MI); type: in vivo, SD rats; conditions: 50 mg/Kg/day intraperitoneal
Protocol: as §1
(§3) The plasma levels of H2S in each treatment group were determined since CSE mediates the endogenous production of H2S in mammals. Plasma H2S concentrations in MI group rats at 48 h after MI induction were 34.7±5.6 μM (n=8). […] Left ventricular CSE activity was analyzed in the tissue homogenates from each treatment group (n=6). CSE activity was 1.58±0.15 μmol/g protein/hr in left the ventricular tissues in MI group and 2.19±0.32 μmol/g protein/hr in the MI+SAC treated rats.

[5] = system: rats following MI injury; experiment: Serum LDH in rats (sham or MI); type: in vivo, SD rats; conditions: Sham rats; 50 mg/Kg/day intraperitoneal
Protocol: as §1, §2

[6] = system: rats following MI injury; experiment: ECG in rats following MI injury; type: in vivo, SD rats; conditions: 50 mg/Kg/day, day 10, 48 hr after the induction of MI
Protocol: (§4) SPRC and SAC were dissolved in saline (vehicle). Male SD rats (weight 200-250 g) were randomly assigned to […] treatment groups: group (1) Sham group: Sham-treated with saline (n=4), (2) Sham+SPRC group: Sham-treated with SPRC (50 mg/Kg/day) (n=4), (3) Sham+SAC group: Sham-treated with SAC (50 mg/Kg/day) (n=4), (4) MI group: MI treated with saline (n=8), (5) MI+SPRC group: MI treated with SPRC (50 mg/Kg/day) (n=8), (6) MI+SAC group: MI treated with SAC (50 mg/Kg/day) (n=8). Rats were pre-treated for seven days with each SAC analogues respectively via an intraperitoneal injection once daily before they were used for MI model studies. […] Briefly, the rats were anesthetized with 7% choral hydrate (60 mg/kg intraperitoneal injection), endotracheally intubated and mechanically ventilated with room air, respiratory rate 100 breaths/min, tidal volume 2.5 ml with a rodent ventilator (DHX-150, China). ECG was recorded in the anaesthetized animal for a period of one minute using the Animal Mflab200 amplifier (Produced in China). A left thoracotomy was performed and the third intercostal space was exposed. […] Then incisions were sutured and the chests were closed. […] Forty eight hours after the surgery, ECG was recorded for each rat in each group. […] To evaluate the effect of SPRC and SAC on MI, infarct size were measured after TTC staining (FIG. 12).

[7] = system: myocardial cells; experiment: SOD activity (Hydroxylamine method) in hypoxia/reoxygenation injured myocardial cells; type: cell-based, Sprague-Dawley (SD) rat
Protocol: Myocardial cell samples were obtained from the same procedure of Example 1, the experiment groups were divided and hypoxia/reoxygenation experiments were performed on Control group, Vehicle group, SAC and analogue groups, same as the experiments in Example 1 with the same dosages and same conditions. Myocardial cells were obtained from each sample (10^6 myocardial cells/sample) from the Control group, Vehicle group, SAC and analogue groups. The cells were lysed under sterilized condition, and SOD (superoxide dismutase) activities in each sample of the cells were determined by Hydroxylamine method (a conventional method well known in the arts) using each microgram of protein per 1 milliliter reaction solution inhibits SOD activity to its 50% of original activity, in which the amount of SOD used in the reaction as standard of 1 unit of SOD activity.

[8] = target: T1, CSE (Rattus norvegicus, UniProt P18757); experiment: Left ventricular CSE activity in tissue homogenates of rats; type: in vivo, SD rats; conditions: 50 mg/Kg/day; for CSE activity: left ventricle
T1 construct: from tissue; host or cells: rat left ventricle (homogenate), myocardial infarction model
T1 sequence (P18757 whole entry): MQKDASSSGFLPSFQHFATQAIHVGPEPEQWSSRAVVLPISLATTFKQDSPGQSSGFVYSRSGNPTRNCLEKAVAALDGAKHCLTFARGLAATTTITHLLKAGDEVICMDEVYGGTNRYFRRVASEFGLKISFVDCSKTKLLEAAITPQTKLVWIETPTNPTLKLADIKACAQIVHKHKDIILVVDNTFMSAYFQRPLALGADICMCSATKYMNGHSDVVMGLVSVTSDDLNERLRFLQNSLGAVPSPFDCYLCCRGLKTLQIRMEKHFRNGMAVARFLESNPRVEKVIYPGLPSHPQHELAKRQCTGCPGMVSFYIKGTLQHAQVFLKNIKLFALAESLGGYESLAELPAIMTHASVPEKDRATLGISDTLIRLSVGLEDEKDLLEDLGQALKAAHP
Protocol: as §1, §3
SPRC administered rats had the highest CSE activity of 2.58±0.07 μmol/g protein/hr (p<0.01) (FIG. 15B). This observation correlated with the observed increases in H2S concentrations in the same treatment groups.

[9] = system: rats following MI injury; experiment: Infarct size after TTC staining in rats following MI injury; type: in vivo, SD rats; conditions: 50 mg/Kg/day intraperitoneal, 7 days before and 2 days after ligation, 48 h after surgery, saline 36.0±1.3%
Protocol: as §4

CSE activity ([8]; MI rats): 2.58 ± 0.07 μM/mgprot | Left ventricular CSE activity ([8]; MI rats, left ventricular tissue homogenates, MI group 1.58±0.15): 2.58±0.07 μmol/g protein/hr | CSE activity ([8]; Sham rats): 2.41 ± 0.12 μM/mgprot
Structure (SMILES): C#CCSC[C@H](N)C(=O)O [SPRC, S-propargyl-cysteine]
SOD ([1]; MI rats, 48 h after MI): 113.8 ± 1.5 U/ml | SOD ([1]; Sham rats): 161.2 ± 3.8 U/ml | CK [2]: 0.251 ± 0.032 U/ml | lipid peroxidation (MDA) [3]: inhibited | H2S concentration in plasma ([4]; MI rats, 48 h after MI induction, 50 mg/kg/day): 91.6 ± 7.6 µM | H2S concentration in plasma ([4]; Sham rats): 67.2 ± 6.4 µM | LDH [5]: 2612 ± 189 U/L | ST-segment elevation in ECG [6]: less elevated ST-segment | Mn-SOD activity in mitochondria ([7]; 10^−5 mol/L): able to elevate | effect of PAG on elevating Mn-SOD activity ([7]; with PAG): PAG also reversed | infarct size/total area of myocardium [9]: 20.8±2.4%
